In patent publication US20150094294A1, “COMPOUNDS AND METHODS FOR TREATING MALARIA” (Cellceutix Corporation, priority 2012, published 2015):
In brackets after ≈: the same amount, converted by molar mass.

Experiments:
Type in all cases: cell-based
[1] = in vitro
[2] = Cytotoxicity against HepG2 cells; settings: human, HepG2 cells; read-out: Cytotoxicity HepG2 EC50
[3] = Cytotoxicity against 3T3 cells; settings: mouse, 3T3 cells; read-out: Cytotoxicity 3T3 EC50
[4] = system: P. falciparum 3D7 (chloroquine-sensitive); assay: Anti-malarial activity, P. falciparum 3D7 culture, 72 hour, DNA content by flow cytometry; settings: synchronized ring-stage parasites
Outline: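 Magnet-synchronized ring-stage parasites in RPMI 1640/Albumax II were plated at 0.5% parasitemia, 4% final hematocrit, with compound added as 2× dilutions (2.5 μM to 20 nM) for 72 h. Fixed, Triton-permeabilized cells were stained with SYTOX Green (5 μM final), and DNA content was measured by flow cytometry to derive IC50.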

[5] = system: P. falciparum DD2 (chloroquine-resistant); assay: Anti-malarial activity, P. falciparum DD2 culture, 72 hour, DNA content by flow cytometry; settings: synchronized ring-stage parasites
Description: Numerous compounds were screened in cultures of the malaria parasite P. falciparum 3D7 (chloroquine-sensitive) and DD2 (chloroquine-resistant). The compounds were also screened for toxixcity against 3T3 cells, HepG2 cells, and in a hemolysis assay. In brief, P. falciparum parasites were cultured in RPMI 1640 (Invitrogen) supplemented with Albumax II (Invitrogen). For synchronization, schizont stage parasites were magnet purified using a SuperMACS™ II Cell Separation Unit (Miltenyi Biotech). For IC50 determinations, synchronized ring-stage parasites were plated at 0.5% parasitemia and 8% hematocrit in 96-well plates at a total volume of 50 μL. Serial dilutions of 2× concentration of the respective compound, ranging from 2.5 μM to 20 nM, were added to the wells to bring the total volume up to 100 μL and 4% hematocrit. Compounds were assayed for a 72 hour period, after which the cultures were fixed with a solution of 4% paraformaldehyde and 0.08% glutaraldhyde in PBS. The cells were then permeabilized with 0.25% Triton X-100, and SYTOX Green Nucleic Acid Stain (Invitrogen) in PBS was added to a final concentration of 5 μM. DNA content, as an indicator of parasitemia, was analyzed on an Accuri C6 Flow Cytometer with C-Sampler. IC50 curves were generated using GraphPad Prism (GraphPad Software).

[6] = system: HepG2 cells; assay: Cytotoxicity against HepG2 cells
[7] = system: 3T3 cells; assay: Cytotoxicity against 3T3 cells
[8] = Plasmodium falciparum, 3D7, 72 h

Structure (SMILES)	EC50 [1] [µg/mL]	IC50 ([5]; Plasmodium falciparum) [µM]	IC50 [4] [µM]	EC50 [6] [µM]	EC50 [7] [µM]	other results
N#Cc1cccc(C(=O)Nc2cc(C(F)(F)F)cc(NC(=O)c3cc(C(=O)Nc4cc(C(F)(F)F)cc(NC(=O)c5cccc(C#N)c5)c4SCCN)ncn3)c2SCCN)c1 [Compound 101]	583 (≈ 653 µM)	0.113	–	–	–	EC50 [2]: 27 µM; EC50 [3]: 74.4 µM; IC50 [4, 8]: 0.047 µM
N=C(N)NCCCCOc1cc(OCCCCNC(=N)N)c(C(F)(F)F)cc1NC(=O)c1cc(C(=O)Nc2cc(C(F)(F)F)c(OCCCCNC(=N)N)cc2OCCCCNC(=N)N)ncn1 [Compound 104]	2 (≈ 2.06 µM)	0.301	–	–	–	EC50 [2]: 39 µM; EC50 [3]: 25 µM; IC50 [4, 8]: 0.2 µM
CC(C)(C)c1cc(NC(=O)CCCCNS(C)(=O)=O)c(SCCNS(C)(=O)=O)c(NC(=O)c2cccc(C(=O)Nc3cc(C(C)(C)C)cc(NC(=O)CCCCNS(C)(=O)=O)c3SCCNS(C)(=O)=O)c2)c1 [Compound 107]	> 1000	0.484	–	–	–	EC50 [2]: > 1000 µM; EC50 [3]: > 1000 µM; IC50 [4, 8]: 0.295 µM
CC(=O)Nc1cc(C(C)(C)C)cc(NC(=O)c2cccc(C(=O)Nc3cc(C(C)(C)C)cc(NC(C)=O)c3SCCN)c2)c1SCCN [Compound 108]	–	–	0.306	–	–	IC50 [5]: 0.419 µM
CC(C)(C)c1cc(NC(=O)c2cccc(C(=O)Nc3cc(C(C)(C)C)cc(NC(=O)C(N)Cc4ccccc4)c3SCCN)c2)c(SCCN)c(NC(=O)C(N)Cc2ccccc2)c1 (centres unmarked) [Compound 109]	–	–	0.438	–	–	IC50 [5]: 0.601 µM
CC(C)(C)c1cc(N)c(SCCN)c(NC(=O)c2cccc(C(=O)Nc3cc(C(C)(C)C)cc(N)c3SCCN)c2)c1 [Compound 110]	–	–	0.563	–	–	IC50 [5]: 0.74 µM
N=C(N)N1CCC(Oc2cc(OC3CCN(C(=N)N)C3)c(C(F)(F)F)cc2NC(=O)c2cc(C(=O)Nc3cc(C(F)(F)F)c(O[C@@H]4CCN(C(=N)N)C4)cc3O[C@@H]3CCN(C(=N)N)C3)ncn2)C1 (some centres unmarked) [Compound 111]	65 (≈ 67.5 µM)	0.431	–	–	–	EC50 [2]: 84 µM; EC50 [3]: 32 µM; IC50 [4, 8]: 0.61 µM
NCCOc1c(N)cc(C(F)(F)F)cc1NC(=O)c1cccc(C(=O)Nc2cc(C(F)(F)F)cc(N)c2OCCN)c1 [Compound 112]	–	–	0.653	–	–	IC50 [5]: 0.993 µM
CC(C)(C)c1cc(N)c(SCCCC(=N)N)c(NC(=O)c2cccc(C(=O)Nc3cc(C(C)(C)C)cc(N)c3SCCCC(=N)N)c2)c1 [Compound 113]	–	–	0.668	–	–	IC50 [5]: 0.611 µM
CN(CCCCC(=O)Nc1cc(C(C)(C)C)cc(NC(=O)c2cccc(C(=O)Nc3cc(C(C)(C)C)cc(NC(=O)CCCCN(C)c4ccccn4)c3SCCN)c2)c1SCCN)c1ccccn1 [Compound 118]	–	–	0.74	–	–	IC50 [5]: 1.15 µM
N=C(N)NCCCCC(=O)Nc1cc(C(F)(F)F)cc(NC(=O)c2cc(C(=O)Nc3cc(C(F)(F)F)cc(NC(=O)CCCCNC(=N)N)c3SCCN)[nH]n2)c1SCCN [Compound 119]	–	–	0.87	–	–	IC50 [5]: 0.688 µM
N=C(N)NCCSc1ccc(NC(=O)Nc2ccc(SCCN)c(C(F)(F)F)c2)cc1C(F)(F)F [Compound 130]	–	–	–	–	–	IC50 [5]: 0.976 µM
NCCCOc1c(-c2cccc(C(F)(F)F)c2)cc(-c2cccc(C(F)(F)F)c2)c(OCCCN)c1-c1cccc(C(F)(F)F)c1 [Compound 145]	6 (≈ 9.14 µM)	0.658	–	–	–	EC50 [2]: 28 µM; EC50 [3]: 14 µM
NC1CCC(N2CCc3ccc(NC(=O)c4cc(C(=O)Nc5ccc6c(c5)CCN(C5CCC(N)CC5)CC6)ncn4)cc3CC2)CC1 (centres unmarked) [Compound 148]	> 1000	0.081	–	–	–	EC50 [2]: > 1000 µM; EC50 [3]: > 1000 µM
FC(F)(F)c1cc(NC2CCNCC2)ccc1Oc1ccc(Oc2ccc(NC3CCCNC3)cc2C(F)(F)F)cc1 (centres unmarked) [Compound 165]	16 (≈ 26.9 µM)	1.18	–	–	–	IC50 [4, 8]: 0.904 µM
CC(=O)NCCSc1c(NC(=O)CCCCNC(=N)N)cc(Br)cc1NC(=O)c1cc(C(=O)Nc2cc(Br)cc(NC(=O)CCCCNC(=N)N)c2SCCNC(C)=O)ncn1 [Compound 169]	210 (≈ 205 µM)	0.15	–	–	–	IC50 [4, 8]: 0.317 µM
COC(=O)CCSc1c(NC(=O)CCCCNC(=N)N)cc(C(F)(F)F)cc1NC(=O)c1cc(C(=O)Nc2cc(C(F)(F)F)cc(NC(=O)CCCCNC(=N)N)c2SCCC(=O)OC)ncn1 [Compound 171]	–	0.524	–	–	–	IC50 [4, 8]: 0.893 µM
O=C(Nc1ccc(SCCNC2=NCCN2)c(C(F)(F)F)c1)Nc1ccc(SCCNC2=NCCN2)c(C(F)(F)F)c1 [Compound 268]	–	–	0.087	447	74	–
N=C(N)N1CCC(Oc2ccc(NC(=O)Nc3ccc(OC4CCN(C(=N)N)C4)c(C(F)(F)F)c3)cc2C(F)(F)F)C1 (centres unmarked) [Compound 271]	–	–	0.029	347	172	–
N=C(N)NCCSc1ccc(NC(=O)Nc2ccc(OC3CCN(C(=N)N)C3)c(C(F)(F)F)c2)cc1C(F)(F)F (centres unmarked) [Compound 272]	–	–	0.038	214	65	–
NCCCSc1ccc(NC(=O)Nc2ccc(SCCCN)c(C(F)(F)F)c2)cc1C(F)(F)F [Compound 274]	–	–	> 2	164	72	–
COc1cc(SCCN)c(C(F)(F)F)cc1NC(=O)Nc1cc(C(F)(F)F)c(SCCN)cc1OC [Compound 277]	–	–	0.57	64	31	–
CCn1c2ccc(C3=CCNCC3)cc2c2cc(C3=CCNCC3)ccc21 [Compound 282]	–	–	> 0.1	126	57	–
CCn1c2ccc(C3CCNCC3)cc2c2cc(C3CCNCC3)ccc21 [Compound 283]	–	–	> 0.1	284	153	–
CCn1c2ccc(C3CCN(C(=N)N)CC3)cc2c2cc(C3CCN(C(=N)N)CC3)ccc21 [Compound 285]	–	–	0.086	815	587	–
c1cc2sc3ccc(N4CCNCC4)cc3c2cc1N1CCNCC1 [Compound 291]	–	–	> 0.1	410	345	–
CCn1c2ccc(N3CCNCC3)cc2c2cc(N3CCNCC3)ccc21 [Compound 293]	–	–	> 0.1	> 1000	469	–
NCCSc1c(NC(=O)c2cc(C(=O)Nc3cc(C(F)(F)F)cc(NC(=O)c4cccs4)c3SCCN)ncn2)cc(C(F)(F)F)cc1NC(=O)c1cccs1 [Compound 311]	–	–	> 0.1	923	923	–

The next lines start with results.

EC50 [1] [µg/mL]	IC50 ([5]; Plasmodium falciparum) [µM]	IC50 [4] [µM]	Structure (SMILES)	EC50 [6] [µM]	EC50 [7] [µM]	other results
> 1000	0.135	–	N=C(N)NCCc1cccc(NC(=O)c2cc(C(=O)Nc3cccc(CCNC(=N)N)c3)ncn2)c1 [Compound 100]	–	–	EC50 [2]: 830 µM; EC50 [3]: 769 µM; IC50 [4, 8]: 0.035 µM
3 (≈ 5.03 µM)	0.247	–	N=C(N)NCCCOc1cc(OCCCNC(=N)N)c(-c2ccc(C(F)(F)F)cc2)cc1-c1ccc(C(F)(F)F)cc1 [Compound 144]	–	–	EC50 [2]: 90 µM; EC50 [3]: 27 µM
197 (≈ 314 µM)	0.53	–	N=C(N)NCCN1CCc2ccc(NC(=O)c3cc(C(=O)Nc4ccc5c(c4)CCN(CCNC(=N)N)CC5)ncn3)cc2CC1 [Compound 150]	–	–	EC50 [2]: 157 µM; EC50 [3]: 168 µM
> 1000	0.563	–	N=C(N)NCCCCN1CCc2ccc(NC(=O)c3cc(C(=O)Nc4ccc5c(c4)CCN(CCCCNC(=N)N)CC5)ncn3)cc2CC1 [Compound 151]	–	–	EC50 [2]: 408 µM; EC50 [3]: 469 µM
–	–	0.059	N=C(N)NCCCc1ccc(-c2ccc(-c3ccc(CCCNC(=N)N)cc3)s2)cc1 [Compound 266]	197	38	–
–	–	0.029	Cn1c(-c2ccc(CCCNC(=N)N)cc2)cnc1-c1ccc(CCCNC(=N)N)cc1 [Compound 267]	823	651	–
–	–	0.32	N=C(N)NCCc1cccc(NC(=O)Nc2cccc(CCNC(=N)N)c2)c1 [Compound 269]	> 1000	> 1000	–
–	–	1.7	N=C(N)NCCSc1ccc(NC(=O)Nc2ccc(SCCCN)c(C(F)(F)F)c2)cc1C(F)(F)F [Compound 275]	342	124	–
–	–	> 0.1	CC1(C)c2cc(-c3cccc(CCN)c3)ccc2-c2ccc(-c3cccc(CCN)c3)cc21 [Compound 281]	5	2	–
–	–	0.08	N=C(N)N1CC=C(c2ccc3sc4ccc(C5=CCN(C(=N)N)CC5)cc4c3c2)CC1 [Compound 286]	221	83	–
–	–	> 0.1	CCn1c2ccc(C3=CCN(C(=N)N)CC3)cc2c2cc(C3=CCN(C(=N)N)CC3)ccc21 [Compound 287]	200	84	–
–	–	> 0.1	N=C(N)NCCCn1c2ccc(C3=CCN(C(=N)N)CC3)cc2c2cc(C3=CCN(C(=N)N)CC3)ccc21 [Compound 289]	425	248	–
